US9345781B2, “Targeted dendrimer-drug conjugates” (priority 2009, dated 2016)

Columns and labels:
[1] = system: tumors of nude tumor bearing mice; assay: Tumor growth in nude tumor bearing mice after intravenous dosing; type: in vivo; settings: one dose/week for 3 weeks
Description: (§1) Nude tumor bearing mice were administered by intravenous injection a single dose of 6, 8, 10, or 12 mg/kg of free DOX (one dose/week for 3 weeks). The mice were sacrificed two weeks after the last administration and the tumors were harvested for analysis. Tumor size was measured and compared to the size of tumors harvested from mice administered a saline control.
The above experiment was repeated with an 8 mg/kg dose of free DOX and two additional test groups of mice: one group of mice were administered a dendrimer conjugate comprising a G5 dendrimer conjugated to DOX (G5-OXY-DOX) comprising an azo linkage comprising the structure of
(§2) Also, in this experiment, instead of being sacrificed two weeks after the last administration, the tumor volumes of the mice were measured one week after the last administration and then measured again four weeks later.

[2] = Toxicity and body weight of treated mice; type: in vivo; settings: one dose/week for 3 weeks
Description: as §1, §2

Hep3B cells = assay: Clonogenic survival of Hep3B cells; type: cell-based, human
Description: (§3) We compared the anticancer activity of G5-L(x)-DOX conjugates to free DOX as a function of concentration by measuring their effect on clonogenic survival of HepG2 and Hep3B hepatic cancer cells. Briefly, HepG2 and Hep3B cells were seeded at a density of 2.5×10^5 cells/T-25 flask and allowed to adhere overnight before incubating with different concentrations (1 nM-100 μM equivalent concentration of DOX) of free DOX or G5-L(x)-DOX conjugates dissolved in OPTI-MEM solution. […] After 72 hours HepG2 and Hep3B cells were washed with cold PBS, trypsinized using a 0.25% trypsin-EDTA solution and centrifuged at 1,000 rpm for 5 minutes. Cell pellets were suspended in fresh culture medium, counted, and plated in 6-well plates at a seeding density of 500-10,000 cells/well and allowed to grow undisturbed for 14 days under normal culture conditions. The formed colonies were gently washed with cold PBS, treated with 1 mL methanol/glacial acetic acid (75/25) and 0.04% w/v trypan blue for 5 minutes and counted. Plating efficiency (PE) for each cell line was calculated by dividing the number of colonies by the cell seeding density for cells incubated with fresh culture medium (negative control). […] All samples were prepared in triplicate for each seeding density and treatment condition, and results expressed as the average % SF±SEM. […]

rat cardiomyocytes = assay: LDH leakage cell viability assay in rat cardiomyocytes; type: cell-based; settings: 100 μM eq. DOX, 8 hour incubation, versus blank medium
Description: Toxicity of G5-L4-DOX conjugates and free DOX in rat cardiomyocytes was evaluated using the lactate dehydrogenase (LDH) leakage cell viability assay. Briefly, each well was counted for total number of cardiomyocytes before an 8 hour treatment with free DOX or G5-L4-DOX (100 μM eq. DOX) conjugates dissolved in 0.5 mL HBSS. The amount of LDH released to the medium was assayed by mixing […] of the treatment solution in a 96-well plate with the enzyme substrate (1:1) included in the assay kit following the manufacturer's guidelines. […] Amount of LDH leakage for treatment solution and controls were normalized to the number of seeded cells, and all values compared to the positive control (set as 100% LDH leakage reference) to obtain the percentage of LDH leakage as a function of treatment.

HepG2 cells = assay: Clonogenic survival of HepG2 cells; type: cell-based, human; settings: 72 hour incubation, equivalent DOX concentration
Description: as §3

COc1cccc2c1C(=O)c1c(O)c3c(c(O)c1C2=O)C[C@@](O)(C(=O)CO)C[C@@H]3O[C@H]1C[C@H](N)[C@H](O)[C@H](C)O1.Cl (relative stereo) [Free DOX, 5,12-Naphthacenedione, 10-[(3-amino-2,3,6-trideoxy-α-L-lyxo-hexopyranosyl)oxy]-7,8,9,10-tetrahydro-6,8,11-trihydroxy-8-(hydroxylacetyl)-1-methoxy-, hydrochloride (8S-cis)]
reduction in tumor size versus saline control ([1]; 6 mg/kg i.v.): did not cause any substantial reduction in tumor size | tumor growth versus control mice ([1]; 8 and 10 mg/kg i.v.): inhibited tumor growth | toxicity to mice ([2]; 10 mg/kg i.v.): slight increase in toxicity | toxicity to mice ([2]; 12 mg/kg i.v.): too toxic to mice | fold reduction in IC50 in Hep3B compared to HepG2 cells (Hep3B cells; 72 hours): 5 fold | IC50 (Hep3B cells; clonogenic survival, 72 hour incubation, equivalent DOX concentration): 2 nM | LDH leakage / cardiac toxicity (rat cardiomyocytes): nearly double the % of LDH leakage | LDH leakage / cardiac toxicity (rat cardiomyocytes; listed as free DOX): toxic | IC50 (HepG2 cells): 10 nM
